Where a name gives a salt, the structure may show the parent alone.
Tests used:
[1] = target: T1, furin (endogenous protease) in U20S cells (Homo sapiens, UniProt P09958); test: Furin cell-based assay (image-based, Golgi-targeted GFP with BMP10 furin/PCSK cleavage site); conditions: 24-hour incubation, read-out: furin golgi cell pXC50 (converted);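 note: Read-out is mean GFP fluorescence of Golgi puncta per cell by high-content imaging, retained when furin inhibited, over an eleven-point 0.00017–10 µM series, four-parameter fit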
T1 construct: the endogenous protease cleaves GFP; endogenous in cells; host or cells: U2OS cells transduced with a BacMam reporter

[2] = target: T2, Furin (108-574-Tev-Flag-His) enzyme (Homo sapiens, UniProt P09958); test: Furin enzyme assay; type: biochemical; conditions: for IC50: read-out: furin enzyme pIC50 (converted)
T2 construct: Furin (108-574-Tev-Flag-His) enzyme was expressed and purified from CHO cells; TEV cleavage site (C); FLAG (C); His (C); made in house; host or cells: CHO cells
Summary of the method: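 Compounds ran as 11-point threefold dilutions (0.00017–10 μM final) against 40 pM furin, purified from CHO cells, for 2 h at room temperature. Buffer: 100 mM HEPES pH7.5 with 1 mM CaCl2 and 0.005% Triton X-100. Envision readout. Four-parameter curve gives pXC50.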

T1 sequence (P09958 108-794): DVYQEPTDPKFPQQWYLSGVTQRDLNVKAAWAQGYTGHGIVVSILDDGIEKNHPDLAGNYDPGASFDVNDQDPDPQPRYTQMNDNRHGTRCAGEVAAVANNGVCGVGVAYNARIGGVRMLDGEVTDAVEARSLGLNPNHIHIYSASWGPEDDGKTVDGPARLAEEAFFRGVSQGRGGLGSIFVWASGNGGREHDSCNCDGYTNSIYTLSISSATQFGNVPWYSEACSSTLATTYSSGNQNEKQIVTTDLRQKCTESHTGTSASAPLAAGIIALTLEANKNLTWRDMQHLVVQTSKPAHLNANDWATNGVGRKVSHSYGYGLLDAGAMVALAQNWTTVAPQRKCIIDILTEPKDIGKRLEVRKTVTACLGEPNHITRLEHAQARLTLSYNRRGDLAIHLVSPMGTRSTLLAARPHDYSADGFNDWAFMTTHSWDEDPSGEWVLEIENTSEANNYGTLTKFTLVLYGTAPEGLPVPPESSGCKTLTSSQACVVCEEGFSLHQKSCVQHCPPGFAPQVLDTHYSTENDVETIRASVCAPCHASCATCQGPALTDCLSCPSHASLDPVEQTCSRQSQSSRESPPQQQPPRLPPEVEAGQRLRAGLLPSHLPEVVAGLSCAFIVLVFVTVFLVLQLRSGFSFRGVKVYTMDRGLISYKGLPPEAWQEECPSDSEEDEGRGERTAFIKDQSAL
T2 sequence (P09958 108-574): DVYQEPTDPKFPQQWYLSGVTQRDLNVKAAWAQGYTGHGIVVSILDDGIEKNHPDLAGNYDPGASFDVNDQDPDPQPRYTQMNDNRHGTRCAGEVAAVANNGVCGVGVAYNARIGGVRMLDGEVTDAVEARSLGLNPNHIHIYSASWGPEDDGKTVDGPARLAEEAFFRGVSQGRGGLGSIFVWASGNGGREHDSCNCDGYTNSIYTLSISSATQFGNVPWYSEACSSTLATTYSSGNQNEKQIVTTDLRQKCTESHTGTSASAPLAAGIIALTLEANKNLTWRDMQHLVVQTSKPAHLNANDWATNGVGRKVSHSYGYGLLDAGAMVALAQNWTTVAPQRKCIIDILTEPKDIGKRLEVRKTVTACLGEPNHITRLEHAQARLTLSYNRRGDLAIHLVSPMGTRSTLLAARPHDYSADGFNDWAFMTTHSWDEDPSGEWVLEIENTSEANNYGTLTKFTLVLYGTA

SMILES | EC50 [1] [nM] | furin enzyme pIC50 [2] | IC50 [2] [nM]
CN(C)C1CCN(c2ncc(Oc3cc(CN4CCC(CC(=O)O)CC4)cc(-c4cc(Cl)cc(Cl)c4)n3)cn2)CC1 [Example 227, 2-(1-((2-(3,5-dichlorophenyl)-6-((2-(4-(dimethylamino)piperidin-1-yl)pyrimidin-5-yl)oxy)pyridin-4-yl)methyl)piperidin-4-yl)acetic acid] | 39.8 | 8.7 | 
O=C(O)CC1CCN(Cc2cc(Oc3cnc(N4CC5CCC(C4)N5)nc3)nc(-c3cc(Cl)cc(Cl)c3)c2)CC1 [Example 163, 2-(1-((2-((2-(3,8-diazabicyclo[3.2.1]octan-3-yl)pyrimidin-5-yl)oxy)-6-(3,5-dichlorophenyl)pyridin-4-yl)methyl)piperidin-4-yl)acetic acid] | 10 | 8.7 | 
CN1CCN(c2ncc(Oc3cc(CN4CCC(CC(=O)O)CC4)cc(-c4cc(Cl)cc(Cl)c4)n3)cn2)CC(C)(O)C1 (stereo not shown) [Example 146, 2-(1-((2-(3,5-dichlorophenyl)-6-((2-(6-hydroxy-4,6-dimethyl-1,4-diazepan-1-yl)pyrimidin-5-yl)oxy)pyridin-4-yl)methyl)piperidin-4-yl)acetic acid] | 15.8 | 8.5 | 
CNCc1cc(Oc2cnc(N3CCN(CCCS(C)(=O)=O)CC3)nc2)nc(-c2cc(Cl)cc(Cl)c2)c1 [Example 37, 1-(2-(3,5-Dichlorophenyl)-6-((2-(4-(3-(methylsulfonyl)propyl)piperazin-1-yl)pyrimidin-5-yl)oxy)pyridin-4-yl)-N-methylmethanamine] | 12.6 | 8.5 | 
CN1CCCN(c2ccc(Oc3cc(CN4CC[C@@H]5[C@H](CC4)[C@H]5C(=O)O)cc(-c4cc(Cl)cc(Cl)c4)n3)nn2)CC1 [Example 362, (1R,7S,8r)-4-((2-(3,5-dichlorophenyl)-6-((6-(4-methyl-1,4-diazepan-1-yl)pyridazin-3-yl)oxy)pyridin-4-yl)methyl)-4-azabicyclo[5.1.0]octane-8-carboxylic acid] | 25.1 |  | 0.0316
CC(=O)NCC1CCN(Cc2cc(Oc3cnc(N4CCC(N)CC4)nc3)nc(-c3cc(Cl)cc(Cl)c3)c2)CC1 [Example 119, N-((1-((2-((2-(4-aminopiperidin-1-yl)pyrimidin-5-yl)oxy)-6-(3,5-dichlorophenyl)pyridin-4-yl)methyl)piperidin-4-yl)methyl)acetamide] | 25.1 | 9.3 | 
CN1CCN(c2ccc(Oc3cc(CN4CC[C@@H]5[C@H](CC4)[C@H]5C(=O)O)cc(-c4cc(Cl)cc(Cl)c4)n3)nn2)CC1 [Example 361, (1R,7S,8r)-4-((2-(3,5-dichlorophenyl)-6-((6-(4-methylpiperazin-1-yl)pyridazin-3-yl)oxy)pyridin-4-yl)methyl)-4-azabicyclo[5.1.0]octane-8-carboxylic acid] | 50.1 | 9 | 
O=C(O)CC1CCN(Cc2cc(Oc3cnc(N4CCN(C5CC5)CC4)nc3)nc(-c3cc(Cl)cc(Cl)c3)c2)CC1 [Example 233, 2-(1-((2-((2-(4-cyclopropylpiperazin-1-yl)pyrimidin-5-yl)oxy)-6-(3,5-dichlorophenyl)pyridin-4-yl)methyl)piperidin-4-yl)acetic acid] | 100 | 8.2 | 
CC(=O)NCC1CCN(Cc2cc(Oc3cnc(N4CCN(CCC(=O)O)CC4)nc3)cc(-c3cc(Cl)cc(Cl)c3)c2)CC1 [Example 168, 3-(4-(5-((5-((4-(Acetamidomethyl)piperidin-1-yl)methyl)-3′,5′-dichloro-[1,1′-biphenyl]-3-yl)oxy)pyrimidin-2-yl)piperazin-1-yl)propanoic acid] | 25.1 | 9.3 | 
NC(=O)CN1CCN(Cc2cc(Oc3cnc(N4CCN(CCC(=O)O)CC4)nc3)nc(-c3cc(Cl)cc(Cl)c3)c2)CC1 [Example 79, 3-(4-(5-((4-((4-(2-amino-2-oxoethyl)piperazin-1-yl)methyl)-6-(3,5-dichlorophenyl)pyridin-2-yl)oxy)pyrimidin-2-yl)piperazin-1-yl)propanoic acid] | 79.4 | 8.3 | 
CNCc1cc(Oc2ccc(N3CCNC(C)(C)C3)nc2)cc(-c2cc(Cl)cc(Cl)c2)c1 [Example 102, 1-(3′,5′-Dichloro-5-((6-(3,3-dimethylpiperazin-1-yl)pyridin-3-yl)oxy)-[1,1′-biphenyl]-3-yl)-N-methylmethanamine, 3 hydrochloride] | 15.8 | 9.2 | 
O=C(O)CC1CCN(Cc2cc(Oc3cnc(N4CCN(CC(O)CO)CC4)nc3)nc(-c3cc(Cl)cc(Cl)c3)c2)CC1 (stereo not shown) [Example 177, 2-(1-((2-(3,5-dichlorophenyl)-6-((2-(4-(2,3-dihydroxypropyl)piperazin-1-yl)pyrimidin-5-yl)oxy)pyridin-4-yl)methyl)piperidin-4-yl)acetic acid] | 20 | 9.2 | 

Next, values leading:

EC50 [1] [nM] | furin enzyme pIC50 [2] | IC50 [2] [nM] | SMILES
5.01 | 9.8 |  | COC(=O)NCC1CCN(Cc2cc(Oc3ccc(N4CCN(CCCS(C)(=O)=O)CC4)nc3)nc(-c3cc(Cl)cc(Cl)c3)c2)CC1 [Example 217, methyl ((1-((2-(3,5-dichlorophenyl)-6-((6-(4-(3-(methylsulfonyl)propyl)piperazin-1-yl)pyridin-3-yl)oxy)pyridin-4-yl)methyl)piperidin-4-yl)methyl)carbamate]
158 | 8.1 |  | CP(C)(=O)CC1CCN(Cc2cc(Oc3ccc(N4CCN(CCC(=O)O)CC4)nc3)nc(-c3cc(Cl)cc(Cl)c3)c2)CC1 [Example 85, 3-(4-(5-((6-(3,5-dichlorophenyl)-4-((4-((dimethylphosphoryl)methyl)piperidin-1-yl)methyl)pyridin-2-yl)oxy)pyridin-2-yl)piperazin-1-yl)propanoic acid]
20 | 8.7 |  | COC(=O)NCC1CCN(Cc2cc(Oc3ccc(N4CCN(C)CC4)nc3)nc(-c3cc(Cl)cc(Cl)c3)c2)CC1 [Example 65, methyl ((1-((2-(3,5-dichlorophenyl)-6-((6-(4-methylpiperazin-1-yl)pyridin-3-yl)oxy)pyridin-4-yl)methyl)piperidin-4-yl)methyl)carbamate]
7.94 | 8.7 |  | CN1CCN(c2ncc(Oc3cc(CN4CCC(CCC(=O)O)CC4)cc(-c4cc(Cl)cc(Cl)c4)n3)cn2)CC1 [Example 130, 3-(1-((2-(3,5-dichlorophenyl)-6-((2-(4-methylpiperazin-1-yl)pyrimidin-5-yl)oxy)pyridin-4-yl)methyl)piperidin-4-yl)propanoic acid]
5.01 | 9.4 |  | COC(=O)CCN1CCN(c2ncc(Oc3cc(CN4CCC(CNC(C)=O)CC4)cc(-c4cc(Cl)cc(Cl)c4)n3)cn2)CC1 [Example 297, methyl 3-(4-(5-((4-((4-(acetamidomethyl)piperidin-1-yl)methyl)-6-(3,5-dichlorophenyl)pyridin-2-yl)oxy)pyrimidin-2-yl)piperazin-1-yl)propanoate]
2 | 8.9 |  | CC(=O)NCC1CCN(Cc2cc(Oc3ccc(N4CCN(C)CC(F)C4)nc3)nc(-c3cc(Cl)cc(Cl)c3)c2)CC1 (stereo not shown) [Example 145, N-((1-((2-(3,5-dichlorophenyl)-6-((6-(6-fluoro-4-methyl-1,4-diazepan-1-yl)pyridin-3-yl)oxy)pyridin-4-yl)methyl)piperidin-4-yl)methyl)acetamide]
2.51 |  | 0.0631 | CNC(=O)NCC1CCN(Cc2cc(Oc3cnc(N4CCN(CCC(C)S(C)(=O)=O)CC4)nc3)nc(-c3cc(Cl)cc(Cl)c3)c2)CC1 (stereo not shown) [Example 220, 1-((1-((2-(3,5-dichlorophenyl)-6-((2-(4-(3-(methylsulfonyl)butyl)piperazin-1-yl)pyrimidin-5-yl)oxy)pyridin-4-yl)methyl)piperidin-4-yl)methyl)-3-methylurea]
6.31 | 8.8 |  | CN1CCN(c2ncc(Oc3cc(CN4CCC(CC(N)=O)CC4)cc(-c4cc(Cl)cc(Cl)c4)n3)cn2)CC1 [Example 142, 2-(1-((2-(3,5-dichlorophenyl)-6-((2-(4-methylpiperazin-1-yl)pyrimidin-5-yl)oxy)pyridin-4-yl)methyl)piperidin-4-yl)acetamide]
1.26 | 10.1 |  | CC(=O)NCC1CCN(Cc2cc(Oc3cnc(N4CCN(CC(C)C(N)=O)CC4)nc3)nc(-c3cc(Cl)cc(Cl)c3)c2)CC1 (stereo not shown) [Example 284, 3-(4-(5-((4-((4-(acetamidomethyl)piperidin-1-yl)methyl)-6-(3,5-dichlorophenyl)pyridin-2-yl)oxy)pyrimidin-2-yl)piperazin-1-yl)-2-methylpropanamide]
63.1 | 9.1 |  | CCNC(=O)CC1CCN(Cc2cc(Oc3cnc(N4CCN(CCC(=O)O)CC4)nc3)nc(-c3cc(Cl)cc(Cl)c3)c2)CC1 [Example 268, 3-(4-(5-((6-(3,5-dichlorophenyl)-4-((4-(2-(ethylamino)-2-oxoethyl)piperidin-1-yl)methyl)pyridin-2-yl)oxy)pyrimidin-2-yl)piperazin-1-yl)propanoic acid]
15.8 | 8.6 |  | CC(CCN1CCN(c2ncc(Oc3cc(CN4CCC(CC(=O)O)CC4)cc(-c4cc(Cl)cc(Cl)c4)n3)cn2)CC1)S(C)(=O)=O (stereo not shown) [Example 205, 2-(1-((2-(3,5-Dichlorophenyl)-6-((2-(4-(3-(methylsulfonyl)butyl)piperazin-1-yl)pyrimidin-5-yl)oxy)pyridin-4-yl)methyl)piperidin-4-yl)acetic acid]

Source: patent US11773078B2, “Furin inhibitors” (Glaxosmithkline Intellectual Property Development Limited, priority 2018, dated 2023)
